Laboratory results: patent publication US20090088463A1, “Pyrazoles Useful in the Treatment of Inflammation” (priority 2005, published 2009)
pIC50: −log10 of the molar value.

These compounds were tested against T1, purified human 15-lipoxygenase (Homo sapiens, UniProt P16050) (assay: 15-lipoxygenase inhibition assay (arachidonic acid oxidation, HPLC readout)). Conditions: arachidonic acid substrate, room temperature.
T1 sequence (P16050 1-662): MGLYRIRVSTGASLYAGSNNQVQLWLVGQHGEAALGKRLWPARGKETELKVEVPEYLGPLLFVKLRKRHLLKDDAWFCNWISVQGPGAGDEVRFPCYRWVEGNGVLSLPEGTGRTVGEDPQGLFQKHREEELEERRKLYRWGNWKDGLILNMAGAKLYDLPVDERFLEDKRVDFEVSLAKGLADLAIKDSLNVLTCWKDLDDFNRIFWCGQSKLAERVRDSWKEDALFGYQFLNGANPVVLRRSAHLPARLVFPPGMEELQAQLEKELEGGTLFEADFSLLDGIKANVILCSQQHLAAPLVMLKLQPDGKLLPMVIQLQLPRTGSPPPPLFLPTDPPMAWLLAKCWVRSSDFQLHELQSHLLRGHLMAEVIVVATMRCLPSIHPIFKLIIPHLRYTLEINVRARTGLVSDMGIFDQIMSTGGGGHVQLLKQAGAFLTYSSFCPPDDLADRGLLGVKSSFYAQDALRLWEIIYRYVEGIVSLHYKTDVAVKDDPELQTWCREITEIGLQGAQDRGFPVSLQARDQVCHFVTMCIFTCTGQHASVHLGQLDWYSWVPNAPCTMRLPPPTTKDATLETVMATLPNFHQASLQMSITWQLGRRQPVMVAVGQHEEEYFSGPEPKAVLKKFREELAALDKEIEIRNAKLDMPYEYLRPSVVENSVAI
Assay type: biochemical
Method: The assay employed takes advantage of the ability of lipoxygenases to oxidize polyunsaturated fatty acids, containing a 1,4-cis-pentadiene configuration, to their corresponding hydroperoxy or hydroxyl derivatives. In this particular assay, the lipoxygenase was a purified human 15-lipoxygenase and the fatty acid was arachidonic acid. The assay is performed at room temperature (20-22° C.) and the following are added to each well in a 96-well microtiter plate:
a) 35 μL phosphate buffered saline (PBS) (pH 7.4); b) inhibitor (i.e. compound) or vehicle (0.5 μl DMSO); c) 10 μL of a 10× concentrated solution of 15-lipoxygenase in PBS. The plates are incubated for 5 minutes at room temperature; d) 5 μl of 0.125 mM arachidonic acid in PBS. The plate is then incubated for 10 minutes at room temperature; e) the enzymatic reaction is terminated by the addition of 100 μl methanol; and
f) the amount of 15-hydroperoxy-eicosatetraenoic acid or 15-hydroxy-eicosatetraenoic acid is measured by reverse phase HPLC.

In order of falling pIC50:
1. O=C(Nc1ccc(Br)cc1OC(F)(F)F)c1cc[nH]n1 [Example 15, N-(4-Bromo-2-trifluoromethoxyphenyl)pyrazole-3-carboxamide]  6.85
2. O=C(Nc1ccc(OC(F)(F)F)cc1Br)c1cc[nH]n1 [Example 2, N-(2-Bromo-4-trifluoromethoxyphenyl)pyrazole-3-carboxamide]  6.80
3. Cc1cc(Cl)ccc1NC(=O)c1cc[nH]n1 [Example 9, N-(4-Chloro-2-methylphenyl)pyrazole-3-carboxamide]  6.12
4. Cc1ccc(NC(=O)c2cc[nH]n2)c(C)c1 [Example 14, N-(2,4-Dimethylphenyl)pyrazole-3-carboxamide]  6.08
5. O=C(Nc1cc(Cl)ccc1Cl)c1cc[nH]n1 [Example 13, N-(2,5-Dichlorophenyl)pyrazole-3-carboxamide]  5.96
6. O=C(Nc1ccc(F)c(F)c1F)c1cc[nH]n1 [Example 7, N-(2,3,4-Trifluorophenyl)pyrazole-3-carboxamide]  5.74
